Assay: Inhibition of dog kidney Sodium/potassium-transporting ATPase by ELISA
Design: species or system Canis lupus familiaris

| SMILES | IC50 [nM] |
| --- | --- |
| C[C@]12C[C@@H](O)[C@H]3[C@@H](CC[C@]4(O)C[C@@H](OC(=O)CCCCCCCCCCCO)CC[C@]34CO)[C@@]1(O)CC[C@@H]2c1ccc(=O)oc1 | 120 |
| C[C@]12C[C@@H](O)[C@H]3[C@@H](CC[C@]4(O)C[C@@H](OC(=O)CCCCC/C=C\CCCCCCO)CC[C@]34CO)[C@@]1(O)CC[C@@H]2c1ccc(=O)oc1 | 100 |
| C[C@]12C[C@@H](O)[C@H]3[C@@H](CC[C@]4(O)C[C@@H](OC(=O)CCCCCCCCCCCCCO)CC[C@]34CO)[C@@]1(O)CC[C@@H]2c1ccc(=O)oc1 | 100 |
| C[C@]12C[C@@H](O)[C@H]3[C@@H](CC[C@]4(O)C[C@@H](O)CC[C@]34CO)[C@@]1(O)CC[C@@H]2c1ccc(=O)oc1 | 120 |
